“Also recorded” adds a separate entry of the source. Read-outs that look alike come from different tables or passages of the source.

Here are results for two molecules from patent US8367075B2, “Synergistic combination and method thereof” (Indian Institute of Science, priority 2010, dated 2013).

One data set relates to Sp2/0 myeloma. The method, then: BALB/c male mice, aged 6-8 weeks and weighing ˜18-25 g, are procured from the Central Animal Facility, Indian Institute of Science, Bangalore. All mice received care according to institutional guidelines and are maintained under controlled conditions and fed with a standard diet.
Sp2/0 cells, a myeloma cell line, is grown in T175 flasks in IMDM complete medium supplemented with 10% fetal bovine serum, 2 mM L-glutamine, 100 U/ml penicillin, 100 μg/ml streptomycin, 10% nonessential amino acids, 10% HEPES, 10% sodium pyruvate, 50 μM 2-ME, 10 μg/ml gentamycin in a humidified atmosphere of 5% CO2 at 37° C.
An experimental syngeneic tumor model using the myeloma, Sp2/0 in BALB/c mice is studied. […] Different amounts of cells are washed and injected s.c. to establish the cell numbers that need to be injected to reproducibly display solid tumors within two weeks. Mice are sacrificed once the tumors reach a large size to avoid distress. Tumor volume is monitored on the mentioned days and calculated with the formula, V=a×b^2/2, where a is the longest and b is perpendicular to it, are measured on the surface of the tumor with vernier calipers.
BALB/c mice (5 per group) of 6 to 8 weeks of age are subcutaneously injected with Sp2/0 myeloma cells (˜10×10^6 cells/mouse). Thereafter, mice are intradermally injected with Mycobacterium indicus pranii (˜5×10^8) either 1 day prior to or 3 or 6 days post-inoculation of tumor cells. Tumor volume is estimated on 9th, 12th and 14th day of tumor inoculation. Vehicle alone (0.1 ml of PBS) is used as control and intradermally injected 3 days after administration of cells.
Next, the optimum dose of Mycobacterium indicus pranii required for reducing the tumor size and delaying the appearance of tumors is titrated. BALB/c mice (5 per group) of 6 to 8 weeks of age are subcutaneously injected with Sp2/0 Myeloma cells (˜10×10^6 cells/mouse). Mice are intradermally injected with different doses of Mycobacterium indicus pranii (5×10^3, 5×10^5, 5×10^7 and 5×10^8) 3 days post-inoculation of tumor cells. Tumor volume is estimated on the 9th, 12th and 14th day of tumor inoculation. Vehicle alone (0.1 ml of PBS) is used as control and intradermally injected 3 days after administration of cells.
BALB/c mice are intraperitoneally injected with three different doses of Cyclophosphamide, Indomethacin and RU486 four days after implantation of Sp2/0 cells. The doses of Cyclophosphamide, Indomethacin and RU486 are chosen based on that administered to mice and the standardization of the same in the Sp2/0 tumor model is depicted in FIG. 4. BALB/c mice (5 per group) of 6 to 8 weeks of age are subcutaneously injected with Sp2/0 myeloma cells (˜10×10^6 cells/mouse). The mice are then intraperitoneally injected with different doses of either Cyclophosphamide (5, 15 or 100 mg/Kg body weight/mouse) or Indomethacin (0.1, 1 or 10 mg/Kg body weight/mouse) or RU486 (0.1, 1 or 5 mg/Kg body weight/mouse), 4 days post-inoculation of tumor cells. Tumor volume is estimated on the 9th, 12th and 14th day after tumor inoculation. Vehicle alone (0.5 ml of PBS) is used as control and intradermally injected 4 days after administration of cells.
BALB/c mice (5 per group) of 6 to 8 weeks of age are subcutaneously injected with Sp2/0 myeloma cells (˜10×10^6 cells/mouse). Four groups of mice are intradermally injected with Mycobacterium indicus pranii (˜5×10^8) 3 days post-inoculation of tumor cells. Three groups of Mycobacterium indicus pranii injected mice are intraperitoneally injected with Cyclophosphamide (15 mg/Kg b. wt.), Indomethacin (1 mg/Kg b. wt.) and RU486 (1 mg/Kg b. wt.) on the next day.

The next data set has as its system EL4 thymoma. Briefly: EL4 thymoma subcutaneous tumor model in C57BL/6 mice (tumor volume). Type of data set: in vivo. The method, then:
EL4 cells, a thymoma cell line, is grown in T75 flasks in RPMI complete medium supplemented with 10% fetal bovine serum, 2 mM L-glutamine, 100 U/ml penicillin, 100 μg/ml streptomycin, 10% nonessential amino acids, 10% HEPES, 10% sodium pyruvate, 50 μM 2-ME, 10 μg/ml gentamycin in a humidified atmosphere of 5% CO2 at 37° C.
C57BL/6 mice (5 per group) of 6 to 8 weeks of age are injected subcutaneously with EL4 […] cells (˜0.5×10^6 cells/mouse). Two groups of mice are intradermally injected with Mycobacterium indicus pranii (˜5×10^8) either 3 or 7 days post-inoculation of tumor cells. Two groups of mice one injected previously with MIP and another uninjected are intraperitoneally injected with 15 mg/Kg body weight of Cyclophosphamide on the next day. Tumor volume is estimated in the three groups of mice on the 11th, 14th and 17th day after tumor inoculation. This has been depicted in FIG. 13. Vehicle alone (0.1 ml of PBS) is used as control and intradermally injected 7 days after administration of cells.

Data set [1] relates to B-cell malignancies such as Multiple myeloma, Solitary plasmacytoma and Plasma cell leukemia. Kind of data set: Mice with B-cell malignancies treated with MIP, Cyclophosphamide or both (Conclusion). The conditions noted are these: MIP ~5×10^8 intradermal and/or Cyclophosphamide 15 mg/Kg i.p. next day; compared with initial tumor size. Type of data set: in vivo. As for the experimental part: The synergistic combination of Cyclophosphamide and Mycobacterium indicus pranii is administered to mice detected with B-cell malignancies such as Multiple myeloma, Solitary plasmacytoma and Plasma cell leukemia. The experiment is conducted mainly on mice which have been detected with said myelomas. The mice are initially examined and the tumor growth and size approximately determined. The mice are then divided into groups so that 5 mice form a group. One mice group is subjected to only Mycobacterium indicus pranii treatment and another group to only Cyclophosphamide treatment. The third group of mice is subjected to a treatment of Mycobacterium indicus pranii along with Cyclophosphamide. This third group of mice are initially intradermally injected with Mycobacterium indicus pranii at a concentration range of ˜5×10^8 cells. […] The mice are then re-examined and the tumor volume estimated on different days after Mycobacterium indicus pranii administration.

Consider `O=P1(N(CCCl)CCCl)NCCCO1` (stereo not shown) [Cyclophosphamide], for which the tumor progression entry was “not able to reduce tumor progression” in the data set with Sp2/0 myeloma (5 mg/Kg body weight i.p. day 4, alone) and “able to prevent tumor progression to a considerable extent” with Sp2/0 myeloma (100 mg/Kg body weight i.p. day 4, alone). In addition, in the data set on Sp2/0 myeloma (15 mg/Kg b. wt. i.p. day 4, alone), the “tumor volume / tumor progression” value is “not able to sufficiently prevent tumor progression; also recorded: showed some reduction in tumor volume”. The tumor volume result is reported as “showed some reduction in tumor volume; also recorded: unable to induce any effect on tumor reduction” in the data set on Sp2/0 myeloma (15 mg/Kg b. wt. i.p. day 8, alone); “effective” in the data set with Sp2/0 myeloma (50 mg/Kg b. wt. i.p. day 4, alone); “significant tumor reduction” with Sp2/0 myeloma (50 mg/kg i.p. day 8, alone); “did not significantly reduce tumor volume” with Sp2/0 myeloma (1, 5 and 15 mg/Kg b. wt. i.p. day 8, alone); “unable to reduce tumor volume” in the data set with Sp2/0 myeloma (1 and 5 mg/Kg b. wt. i.p. day 4, alone); “had no effect on tumor volume” with Sp2/0 myeloma (Cyclophosphamide alone on the same day as MIP (day 3), one day prior or one day after). Further, the toxicity to mice result in the data set with Sp2/0 myeloma (50 mg/Kg b. wt. i.p.) is “toxic to mice”. For the same molecule, the “effect on the mice (toxicity)” value in the data set with Sp2/0 myeloma (100 mg/Kg body weight i.p. day 4) was “reduced body weight and hair loss”. Besides, the tumor reduction entry in the data set with EL4 thymoma (15 mg/Kg body weight i.p. day 4 or day 8, alone) is recorded as “unable to induce any effect on tumor reduction”. Besides, the tumor size entry with EL4 thymoma (15 mg/Kg body weight i.p. on day 8, alone, vs PBS) was “greater than observed with PBS”. In addition, the tumor size/volume result in data set [1] is given as “failed to elicit a similar tumor size reduction”.
On to `COc1ccc2c(c1)c(CC(=O)O)c(C)n2C(=O)c1ccc(Cl)cc1` [Indomethacin], for which the tumor volume result is “did not show any significant reduction in tumor volume” with Sp2/0 myeloma (0.1, 1 or 10 mg/Kg body weight i.p. day 4, alone, even at the highest dose) and “seemed to reverse the beneficial effects observed with Mycobacterium indicus pranii” with Sp2/0 myeloma (MIP ~5×10^8 intradermal day 3 plus drug i.p. day 4 (Cyclophosphamide 15, Indomethacin 1 or RU486 1 mg/Kg b. wt.)).
